Measurements: patent US9346809B2 (LEO PHARMA A/S, priority 2009, dated 2016)
pEC50: −log10 of the molar value. Where two headings read alike, the source gives them in different places.

Key:
Format in all cases: biochemical
[1] = target: T1, JAK3 (catalytic domain, His-tag) (Homo sapiens, UniProt P52333); test: JAK kinase assay (HTRF, phosphorylation of TK substrate-biotin), JAK3; conditions: ATP at Km (2 μM), read-out: JAK3 kinase inhibitory activity (EC50 indicator)
T1 construct: All four purified enzymes contain only the catalytic domain; His (N); purchased Carna Biosciences, Inc; host or cells: baculovirus expression system
Outline: (§1)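 Baculovirus-expressed catalytic domains phosphorylated 1 μM TK substrate-biotin in 50 mM Hepes pH 7.0 with ATP at Km (JAK1 7 μM, JAK2 4 μM, JAK3 2 μM, TYK2 13 μM) for 20-30 min at RT. EDTA/KF stop, streptavidin-XL665 plus cryptate antibody overnight; HTRF signal gave EC50.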

[2] = target: T2, TYK2 (aa 871-1187, catalytic domain, GST-tag) (Homo sapiens, UniProt P29597); test: JAK kinase assay (HTRF, phosphorylation of TK substrate-biotin), TYK2; conditions: ATP at Km (13 μM), read-out: TYK2 kinase inhibitory activity (EC50 indicator)
T2 construct: JAK1 (aa 850-1154) and TYK2 (aa 871-1187) are expressed with an N-terminally fused GST-tag; GST (N); purchased Carna Biosciences, Inc; host or cells: baculovirus expression system
T2 sequence (P29597 871-1187): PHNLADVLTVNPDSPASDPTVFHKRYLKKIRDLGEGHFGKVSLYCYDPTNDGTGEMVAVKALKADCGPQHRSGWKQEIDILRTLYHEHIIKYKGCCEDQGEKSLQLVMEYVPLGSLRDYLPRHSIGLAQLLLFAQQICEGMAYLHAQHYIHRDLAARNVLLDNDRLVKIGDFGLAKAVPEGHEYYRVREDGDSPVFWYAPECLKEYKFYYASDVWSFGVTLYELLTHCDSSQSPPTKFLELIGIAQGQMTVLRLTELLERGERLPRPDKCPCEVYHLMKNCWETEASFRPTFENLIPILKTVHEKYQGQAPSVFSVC
Outline: as §1

[3] = target: T3, JAK1 (aa 850-1154, catalytic domain, GST-tag) (Homo sapiens, UniProt P23458); test: JAK kinase assay (HTRF, phosphorylation of TK substrate-biotin), JAK1; conditions: ATP at Km (7 μM), read-out: JAK1 kinase inhibitory activity (EC50 indicator)
T3 construct: JAK1 (aa 850-1154) and TYK2 (aa 871-1187) are expressed with an N-terminally fused GST-tag; GST (N); purchased Carna Biosciences, Inc; host or cells: baculovirus expression system
Outline: as §1

[4] = target: T4, JAK2 (catalytic domain, His-tag) (Homo sapiens, UniProt O60674); test: JAK kinase assay (HTRF, phosphorylation of TK substrate-biotin), JAK2; conditions: ATP at Km (4 μM), read-out: JAK2 kinase inhibitory activity (EC50 indicator)
T4 construct: All four purified enzymes contain only the catalytic domain; His (N); purchased Carna Biosciences, Inc; host or cells: baculovirus expression system
Outline: as §1

T1 sequence (P52333 822-1111 limits assumed): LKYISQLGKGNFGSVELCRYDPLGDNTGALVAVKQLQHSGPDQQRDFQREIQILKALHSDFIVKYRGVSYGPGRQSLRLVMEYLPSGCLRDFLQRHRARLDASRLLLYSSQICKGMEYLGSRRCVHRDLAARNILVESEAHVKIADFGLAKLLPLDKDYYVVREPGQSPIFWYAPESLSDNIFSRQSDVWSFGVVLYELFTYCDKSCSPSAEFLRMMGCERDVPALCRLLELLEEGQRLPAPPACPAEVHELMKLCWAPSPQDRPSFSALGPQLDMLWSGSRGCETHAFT
T4 sequence (O60674 849-1124 limits assumed): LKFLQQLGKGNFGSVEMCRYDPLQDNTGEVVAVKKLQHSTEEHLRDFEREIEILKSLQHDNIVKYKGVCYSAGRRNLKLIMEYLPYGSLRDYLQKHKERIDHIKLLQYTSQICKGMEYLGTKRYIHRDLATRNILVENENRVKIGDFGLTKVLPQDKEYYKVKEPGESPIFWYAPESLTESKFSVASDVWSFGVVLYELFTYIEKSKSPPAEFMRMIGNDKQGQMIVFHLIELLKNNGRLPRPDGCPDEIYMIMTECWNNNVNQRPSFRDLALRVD
T3 sequence (P23458 850-1154): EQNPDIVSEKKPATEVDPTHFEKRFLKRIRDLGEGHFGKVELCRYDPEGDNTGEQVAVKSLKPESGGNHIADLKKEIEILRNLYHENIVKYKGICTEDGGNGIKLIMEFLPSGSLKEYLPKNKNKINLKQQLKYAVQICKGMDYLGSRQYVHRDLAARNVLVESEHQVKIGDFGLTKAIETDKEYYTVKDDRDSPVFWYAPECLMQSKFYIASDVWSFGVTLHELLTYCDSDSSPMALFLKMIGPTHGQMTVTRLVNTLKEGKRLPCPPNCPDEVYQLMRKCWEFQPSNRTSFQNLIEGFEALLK

pEC50 ([1]; HTRF assay) | pEC50 ([2]; HTRF assay) | pEC50 ([3]; HTRF assay) | pEC50 ([4]; HTRF assay) | pEC50 [1] | pEC50 [2] | pEC50 [3] | pEC50 [4] | SMILES
< 6.30 | 6.30 to 7.00 | > 7.00 | > 7.00 | – | – | – | – | CS(=O)(=O)c1ccc(C(=O)N2CCN(c3ncnc4[nH]ccc34)CC23CC3)c(Cl)c1 [Example 382, (2-Chloro-4-methanesulfonyl-phenyl)-[7-(7H-pyrrolo[2,3-d]pyrimidin-4-yl)-4,7-diaza-spiro[2.5]oct-4-yl]-methanone]
– | – | – | – | > 7.00 | 6.30 to 7.00 | > 7.00 | > 7.00 | O=C(c1cc2ccccc2[nH]1)N1CCN(c2ncnc3[nH]ccc23)CC12CC2 [Example 55, (1H-Indol-2-yl)-[7-(7H-pyrrolo[2,3-d]pyrimidin-4-yl)-4,7-diazaspiro[2.5]oct-4-yl]methanone]
> 7.00 | > 7.00 | > 7.00 | > 7.00 | – | – | – | – | Cc1cncc(C(=O)N2CCN(c3ncnc4[nH]ccc34)CC23CC3)n1 [Example 418, (6-Methyl-pyrazin-2-yl)-[7-(7H-pyrrolo[2,3-d]pyrimidin-4-yl)-4,7-diaza-spiro[2.5]oct-4-yl]-methanone]
6.30 to 7.00 | 6.30 to 7.00 | > 7.00 | > 7.00 | – | – | – | – | CS(=O)(=O)c1ccc(C(=O)N2CCN(c3ncnc4[nH]ccc34)CC23CC3)cc1 [Example 364, (4-Methanesulfonyl-phenyl)-[7-(7H-pyrrolo[2,3-d]pyrimidin-4-yl)-4,7-diaza-spiro[2.5]oct-4-yl]-methanone]
> 7.00 | > 7.00 | > 7.00 | > 7.00 | – | – | – | – | CS(=O)(=O)Nc1ccc(C(=O)N2CCN(c3ncnc4[nH]ccc34)CC23CC3)cc1 [Example 430, N-{4-[7-(7H-Pyrrolo[2,3-d]pyrimidin-4-yl)-4,7-diaza-spiro[2.5]octane-4-carbonyl]-phenyl}-methanesulfonamide]
– | – | – | – | > 7.00 | > 7.00 | > 7.00 | > 7.00 | Cn1cc(S(N)(=O)=O)cc1C(=O)N1CCN(c2ncnc3[nH]ccc23)CC12CC2 [Example 188, 1-Methyl-5-[7-(7H-pyrrolo[2,3-d]pyrimidin-4-yl)-4,7-diaza-spiro[2.5]octane-4-carbonyl]-1H-pyrrole-3-sulfonic acid amide]
> 7.00 | > 7.00 | > 7.00 | > 7.00 | – | – | – | – | O=C(c1cc(O)cs1)N1CCN(c2ncnc3[nH]ccc23)CC12CC2 [Example 385, (4-Hydroxy-thiophen-2-yl)-[7-(7H-pyrrolo[2,3-d]pyrimidin-4-yl)-4,7-diaza-spiro[2.5]oct-4-yl]-methanone]
> 7.00 | > 7.00 | > 7.00 | > 7.00 | – | – | – | – | Cc1sc(C(=O)N2CCN(c3ncnc4[nH]ccc34)CC23CC3)cc1Br [Example 208, (4-Bromo-5-methyl-thiophen-2-yl)-[7-(7H-pyrrolo[2,3-d]pyrimidin-4-yl)-4,7-diaza-spiro[2.5]oct-4-yl]-methanone]
– | – | – | – | > 7.00 | > 7.00 | > 7.00 | > 7.00 | O=C(c1cc2c(s1)CCC2)N1CCN(c2ncnc3[nH]ccc23)CC12CC2 [Example 61, (5,6-Dihydro-4H-cyclopenta[b]thiophen-2-yl)[7-(7H-pyrrolo[2,3-d]pyrimidin-4-yl)-4,7-diaza-spiro[2.5]oct-4-yl]-methanone]
– | – | – | – | 6.30 to 7.00 | < 6.30 | > 7.00 | > 7.00 | CC#CCOC(=O)N1CCN(c2ncnc3[nH]ccc23)CC12CC2 [Example 89, 7-(7H-Pyrrolo[2,3-d]pyrimidin-4-yl)-4,7-diaza-spiro[2.5]octane-4-carboxylic acid but-2-ynyl ester]
– | – | – | – | 6.30 to 7.00 | 6.30 to 7.00 | > 7.00 | > 7.00 | Cc1ccsc1C(=O)N1CCN(c2ncnc3[nH]ccc23)CC12CC2 [Example 90, (3-Methyl-thiophen-2-yl)[7-(7H-pyrrolo[2,3-d]pyrimidin-4-yl)-4,7-diaza-spiro[2.5]oct-4-yl]-methanone]
– | – | – | – | > 7.00 | 6.30 to 7.00 | > 7.00 | > 7.00 | N#CCCC(=O)N1CCN(c2ncnc3[nH]ccc23)CC12CC2 [Example 167, 4-Oxo-4-[7-(7H-pyrrolo[2,3-d]pyrimidin-4-yl)-4,7-diaza-spiro[2.5]oct-4-yl]-butyronitrile]

More lines, now with the values behind:

SMILES | pEC50 ([1]; HTRF assay) | pEC50 ([2]; HTRF assay) | pEC50 ([3]; HTRF assay) | pEC50 ([4]; HTRF assay) | pEC50 [1] | pEC50 [2] | pEC50 [3] | pEC50 [4]
N#Cc1ccc(C(=O)N2[C@@H]3CC[C@@H]2CN(c2ncnc4[nH]ccc24)C3)cc1F [Example 350, 2-Fluoro-4-[3-(7H-pyrrolo[2,3-d]pyrimidin-4-yl)-3,8-diaza-bicyclo[3.2.1]octane-8-carbonyl]-benzonitrile] | > 7.00 | 6.30 to 7.00 | > 7.00 | > 7.00 | – | – | – | –
COc1cnc2[nH]ccc2c1N1CCN(C(=O)c2ccc(-c3ccccc3)s2)C2(CC2)C1 [Example 290, [7-(5-Methoxy-1H-pyrrolo[2,3-b]pyridin-4-yl)-4,7-diaza-spiro[2.5]oct-4-yl]-(5-phenyl-thiophen-2-yl)-methanone] | < 6.30 | < 6.30 | < 6.30 | < 6.30 | – | – | – | –
N#Cc1ccc(C(F)(F)C(=O)N2CCN(c3ncnc4[nH]ccc34)CC23CC3)cc1 [Example 64, 4-{1,1-Difluoro-2-oxo-2-[7-(7H-pyrrolo[2,3-d]pyrimidin-4-yl)-4,7-diaza-spiro[2.5]oct-4-yl]-ethyl}-benzonitrile] | – | – | – | – | 6.30 to 7.00 | < 6.30 | > 7.00 | > 7.00
CC1CN(C(=O)c2ccc(C#N)cc2)C2(CC2)CN1c1ncnc2[nH]ccc12 (centres unmarked) [Example 148, 4-[6-Methyl-7-(7H-pyrrolo[2,3-d]pyrimidin-4-yl)-4,7-diaza-spiro[2.5]octane-4-carbonyl]-benzonitrile] | – | – | – | – | 6.30 to 7.00 | < 6.30 | > 7.00 | > 7.00
Cc1cncc(C(=O)N2[C@@H]3CC[C@H]2CN(c2ncnc4[nH]ccc24)C3)n1 [Example 73, (6-Methyl-pyrazin-2-yl)-[3-(7H-pyrrolo[2,3-d]pyrimidin-4-yl)-3,8-diaza-bicyclo[3.2.1]oct-8-yl]-methanone] | – | – | – | – | 6.30 to 7.00 | < 6.30 | > 7.00 | 6.30 to 7.00
COCCOCC(=O)Nc1nc(N2CCN(C(=O)Cc3ccc(C#N)cc3)C3(CC3)C2)c2cc[nH]c2n1 [Example 96, N-(4-{4-[2-(4-Cyano-phenyl)-acetyl]-4,7-diaza-spiro[2.5]oct-7-yl}-7H-pyrrolo[2,3-d]pyrimidin-2-yl)-2-(2-methoxy-ethoxy)-acetamide] | – | – | – | – | 6.30 to 7.00 | < 6.30 | > 7.00 | > 7.00
N#Cc1ccccc1C(=O)N1CCN(c2ccnc3[nH]ccc23)CC12CC2 [Example 235, 2-[7-(1H-Pyrrolo[2,3-b]pyridin-4-yl)-4,7-diaza-spiro[2.5]octane-4-carbonyl]-benzonitrile] | < 6.30 | < 6.30 | 6.30 to 7.00 | > 7.00 | – | – | – | –
N#Cc1cccc(C(=O)N2CCN(c3ncnc4[nH]cc(Cl)c34)CC23CC3)c1 [Example 316, 3-[7-(5-Chloro-7H-pyrrolo[2,3-d]pyrimidin-4-yl)-4,7-diaza-spiro[2.5]octane-4-carbonyl]-benzonitrile] | 6.30 to 7.00 | < 6.30 | < 6.30 | 6.30 to 7.00 | – | – | – | –
O=C(OCc1ccccc1)N1[C@@H]2CC[C@H]1CN(c1ncnc3[nH]ccc13)C2 [Example 58, 3-(7H-Pyrrolo[2,3-d]pyrimidin-4-yl)-3,8-diazabicyclo[3.2.1]octane-8-carboxylic acid benzyl ester] | – | – | – | – | 6.30 to 7.00 | < 6.30 | > 7.00 | > 7.00
O=C(Cc1cccs1)N1[C@@H]2CC[C@H]1CN(c1ncnc3[nH]ccc13)C2 [Example 109, 1-[3-(7H-Pyrrolo[2,3-d]pyrimidin-4-yl)-3,8-diaza-bicyclo[3.2.1]oct-8-yl]-2-thiophen-2-yl-ethanone] | – | – | – | – | 6.30 to 7.00 | < 6.30 | > 7.00 | > 7.00
N#Cc1cc(CC(=O)N2CCN(c3ncnc4[nH]ccc34)CC23CC3)ccc1F [Example 66, 2-Fluoro-5-{2-oxo-2-[7-(7H-pyrrolo[2,3-d]pyrimidin-4-yl)-4,7-diaza-spiro[2.5]oct-4-yl]-ethyl}-benzonitrile] | – | – | – | – | 6.30 to 7.00 | < 6.30 | > 7.00 | > 7.00
